“Also recorded” adds a separate entry of the source.
How the values were obtained:
[1] = test system: runx1; test: In situ hybridization of whole embryos, runx1; format: in vivo, zebrafish; settings: 10 μM, treated 48-72 hpf, fixed at 72 hpf
Procedure: (§1) In situ hybridization: Wildtype AB embryos from the same clutch were treated between 48-72 hpf with 10 μM retinoic acid agonists diluted in E3, fixed at 72 hpf in 4% paraformaldehyde, and processed as previously described. CHT staining in the embryos was blindly scored as high, medium, or low, and summed across 3 independent experiments as done previously. Representative images were acquired on a Nikon ZMS 18 microscope.

[2] = test system: Ki-67; test: Immunohistochemistry of ACC primagrafts, Ki-67; format: in vivo, nude mice; settings: ACC x6, x9, x11 primagrafts at conclusion of long-term studies
From the text: (§2) Primagraft experiments: For in vivo drug testing, ACC tumor fragments from host animals were implanted subcutaneously into the flank of nude mice (CRL: ATH/NU). Once tumors reached 125-250 mm3, mice were randomized to receive vehicle or drug diluted in 10:90 DMSO:10% hydroxypropyl-beta-cyclodextrin orally until controls reached a tumor volume endpoint of 1-2 cm3 (4-9 mice per group: x5M1 and x6, 4 treated vs. 9 vehicle controls; x9, 4 treated vs. 5 vehicle controls; x11, 5 treated vs. 8 vehicle controls). Mice were treated with ATRA (ACC x6 and x11: 4 mg/mL, 0.2 mL flat dose; ACC×9: 3 mg/mL, 0.2 mL flat dose) or isotretinoin (30 mg/mL, 0.2 mL flat dose). Tumor growth was monitored and mice weighed twice weekly and studies ended when final group reached tumor volume endpoint. No statistical methods were employed to determine the sample size, and no blinding of investigators was performed. […]
Immunohistochemistry: Sectioning and staining was carried out by the Dana-Farber/Harvard Cancer Center Specialized Histopathology Core using standard procedures on ACC x6, x9, and x11 samples (from long-term tumor growth inhibition studies). […] Primary antibody was detected using Bond Polymer Refine Detection kit. […] Images (>200 nuclei each) from three different individual primagrafts were blindly quantitated.

[3] = test system: ACC PDX models; test: ATRA comparison TGI studies in ACC PDX models; format: in vivo; settings: ATRA 8 mg/kg to 32 mg/kg; tamibarotene 2 mg/kg
Procedure: The TGI studies in ACC PDX models were repeated in order to compare the original ATRA dose (3 or 4 mg/ml) against a more physiologically relevant dose of ATRA (8 mg/kg) and an alternative retinoid Tamibarotene (originally developed for ATRA-resistant cancer settings, approved in Japan and currently in development at Syros Pharmaceuticals).

[4] = test system: ACCx11; test: ACC xenotransplantation trial, ACCx11; format: in vivo, nude mice; settings: for tumor growth inhibition ACCx11: oral 0.2 mL flat dose: ATRA 4 mg/mL, isotretinoin 30 mg/mL, fenretinide 40 mg/mL
Procedure: (§3) Xenograft experiments: To generate ACC xenografts, 1×10^6 viable ACC cells were injected into the flank of female nude (Foxn1nu) mice for in vivo drug testing of ACCx6, ACCx9, and ACCx11 lines. Once tumors were visible, the mice were randomized to receive vehicle control or drug until reaching a […] tumor volume of 1,000 mm3. The mice in each group were treated with an oral flat dose five times weekly (po qdx5) for four cycles (two days off between cycles). The exact dosing was determined based on an initial MTD tolerability study and published literature reports. Five mice per group were treated for ACCx6 and ACCx9, and four mice per group were treated for ACCx11 (five mice in the control ACCx11 group), and the tumor volumes were quantified. Mice were treated with a flat dose of 0.2 mL orally of: 30 mg/mL isotretinoin; 40 mg/mL fenretinide; 4 mg/mL ATRA for ACCx6 and ACCx11 or 3 mg/mL ATRA for ACCx9. Mouse procedures used in this study were approved by the IACUC at South Texas Accelerated Research Therapeutics (San Antonio, Tex.).
(§4) Primagraft experiments: For in vivo drug testing, ACC tumor fragments from host animals were implanted subcutaneously into the flank of nude mice (CRL: ATH/NU). Once tumors reached 125-250 mm3, mice were randomized to receive vehicle or drug diluted in 10:90 DMSO:10% hydroxypropyl-beta-cyclodextrin orally until controls reached a tumor volume endpoint of 1-2 cm3 (4-9 mice per group: x5M1 and x6, 4 treated vs. 9 vehicle controls; x9, 4 treated vs. 5 vehicle controls; x11, 5 treated vs. 8 vehicle controls). Mice were treated with ATRA (ACC x6 and x11: 4 mg/mL, 0.2 mL flat dose; ACC×9: 3 mg/mL, 0.2 mL flat dose) or isotretinoin (30 mg/mL, 0.2 mL flat dose). Tumor growth was monitored and mice weighed twice weekly and studies ended when final group reached tumor volume endpoint. No statistical methods were employed to determine the sample size, and no blinding of investigators was performed. After long-term tumor growth inhibition studies were completed, the ATRA treated mice stopped receiving treatment and were maintained longer as indicated to monitor tumor maintenance after treatment cessation. For long-term tumor growth inhibition studies, ACC x6, x9, and x11 models were used and primagrafts collected at the completion of the study. Short-term kinetics studies were also undertaken with ACC x9 and x5M1 primagrafts involving 3 day ATRA treatments. All animal procedures used in this study were approved by the IACUC at START, San Antonio, Tex.

[5] = test system: 1-plastin; test: In situ hybridization of whole embryos, 1-plastin; format: in vivo, zebrafish; settings: 10 μM, treated 48-72 hpf, fixed at 72 hpf
Procedure: as §1

[6] = test system: lyz:dsRed positive cells; test: Confocal imaging of CHT, lyz:dsRed positive cells; format: in vivo, zebrafish; settings: 10 μM, treated 48-72 hpf, imaged at 72 hpf
Procedure: Confocal imaging: Double transgenic c-myb:GFP; lyz:dsRed or c-myb:GFP; mpeg1:mCherry embryos from the same clutch were treated between 48-72 hpf (n=4 biological replicates per treatment group) with 10 μM ATRA diluted in E3. Live 72 hpf embryos were embedded in 0.8% low-melting point agarose containing 0.04 mg/mL Tricaine and imaged on a Nikon Eclipe Ti microscope with 20× Plan-Apo DIC N.A. 0.75. CHT cells were counted in Z-stack image projections processed on Imaris software (Bitplane).

[7] = test system: ACCx9; test: ACC xenotransplantation trial, ACCx9; format: in vivo, nude mice; settings: oral 0.2 mL flat dose: ATRA 3 mg/mL, isotretinoin 30 mg/mL, fenretinide 40 mg/mL
Procedure: as §3, §2

[8] = test system: RARA and RARG; test: RNA-seq of short-term ACC x9 primagrafts, RARA and RARG; format: in vivo, human; settings: 3 days, n=3, p<0.05
From the text: as §4, with “All animal procedures used in this study were approved by the IACUC at START, San Antonio, Tex.” left out

[9] = patients, 45 mg/m2 oral dose of ATRA, first day of treatment; cited from earlier work
[10] = test system: ACC patient derived xenografts; test: ACC xenotransplantation trials, average across ACCx6, ACCx9 and ACCx11; format: in vivo, nude mice; parameters: concentration or dose not given beside the values; settings: average of ACCx6, ACCx9, ACCx11
Procedure: as §3, §4

[11] = test system: ACCx6; test: ACC xenotransplantation trial, ACCx6; format: in vivo, nude mice; settings: oral 0.2 mL flat dose: ATRA 4 mg/mL, isotretinoin 30 mg/mL, fenretinide 40 mg/mL
Procedure: as §3, §2

[12] = test system: mpx; test: In situ hybridization of whole embryos, mpx; format: in vivo, zebrafish; settings: 10 μM, treated 48-72 hpf, fixed at 72 hpf
Procedure: as §1

CC(C=CC1=C(C)CCCC1(C)C)=CC=C/C(C)=C/C(=O)O [ATRA, (E)-3,7-dimethyl-9-(2,6,6-trimethyl-1-cyclo-hexen-1-yl)-2,4,6,8-nonatetraenoic acid]
runx1 expression (staining) in the CHT [1]: significant decrease; also recorded: decreased staining
proliferation (Ki-67 positive nuclei) [2]: no significant effect
tumor growth inhibition in the PDX studies [3]: showed tumor growth inhibition
tumor growth inhibition after discontinuation of treatment, ACC x11 ([4]; after approximately 28 days of treatment): sustained
tumor growth inhibition ACCx11 [4]: 105%
1-plastin expression (staining) in the CHT [5]: no significant difference; also recorded: did not decrease staining
lyz:dsRed+ cells in the CHT [6]: no significant difference; also recorded: no significant effect
tumor growth inhibition ACCx9 [7]: 78%
increase of RARA and RARG gene levels [8]: ~40%
median plasma concentration [9]: approximately 1 μM
Average tumor growth inhibition across the three models [10]: 88%
Average tumor growth inhibition across the three models ([10]; listed as all-trans retinoic acid (ATRA)): 88%
tumor growth inhibition ACCx6 [11]: 81%
mpx expression (staining) in the CHT [12]: no significant difference; also recorded: did not decrease staining

CC1=C(/C=C/C(C)=C/C=C/C(C)=C/C(=O)Nc2ccc(O)cc2)C(C)(C)CCC1 [Fenretinide, retinoic acid p-hydroxyanilide]
tumor growth inhibition ACCx11 [4]: 41%
tumor growth inhibition ACCx9 [7]: 57%
Average tumor growth inhibition across the three models [10]: 53%
Average tumor growth inhibition across the three models ([10]; listed as fenretinide): 53%
tumor growth inhibition ACCx6 [11]: 60%

CC1=C(/C=C/C(C)=C/C=C/C(C)=C\C(=O)O)C(C)(C)CCC1 [Isotretinoin, 13-cis-retinoic acid]
tumor growth inhibition ACCx11 [4]: 94%
tumor growth inhibition ACCx9 [7]: 95%
Average tumor growth inhibition across the three models [10]: 86%
Average tumor growth inhibition across the three models ([10]; listed as isotretinoin): 86%
tumor growth inhibition ACCx6 [11]: 69%

Reference: patent US10668039B2, “Methods for treatment of adenoid cystic carcinoma” (THE CHILDREN'S MEDICAL CENTER CORPORATION, priority 2016, dated 2020)
